Test results reported in article PMC5107130 (Pharmacological Research, 2016).
“And” between values parts separate entries of the source, which are not always exact repeats. Equal values may be shown once. “Also recorded” adds a separate entry of the source. Read-outs that look alike come from different tables or passages of the source.

How the values were obtained:
[1] = Counterscreen: AzMC fluorescence signal generated by the H2S donor GYY4137; settings: mean ± SEM, n = 3
[2] = biological target: T1, Recombinant full length human CBS (Homo sapiens, UniProt P35520); test: AzMC fluorescence assay of CBS-derived H2S production; assay type: biochemical; settings: for Confirmation (% inhibition of CBS-induced AzMC fluorescence) / % inhibition of CBS-induced AzMC fluorescence: mean ± SEM, n = 3; for % inhibition of CBS-induced AzMC fluorescence: copper compounds
T1 sequence (P35520 1-551): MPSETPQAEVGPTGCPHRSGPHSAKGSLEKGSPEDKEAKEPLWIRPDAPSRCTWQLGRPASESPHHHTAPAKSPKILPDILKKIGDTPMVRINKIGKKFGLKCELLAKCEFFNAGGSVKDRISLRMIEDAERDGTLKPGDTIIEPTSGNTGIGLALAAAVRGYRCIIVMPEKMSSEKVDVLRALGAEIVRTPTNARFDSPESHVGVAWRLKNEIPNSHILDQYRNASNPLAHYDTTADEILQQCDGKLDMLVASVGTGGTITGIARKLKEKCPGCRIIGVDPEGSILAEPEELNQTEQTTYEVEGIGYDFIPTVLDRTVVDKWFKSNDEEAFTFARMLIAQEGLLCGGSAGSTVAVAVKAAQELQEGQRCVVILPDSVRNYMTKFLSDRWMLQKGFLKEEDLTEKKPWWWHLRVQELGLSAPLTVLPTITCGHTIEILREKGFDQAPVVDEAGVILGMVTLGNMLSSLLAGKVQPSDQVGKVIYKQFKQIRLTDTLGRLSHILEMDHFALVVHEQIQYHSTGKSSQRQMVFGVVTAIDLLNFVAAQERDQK

[3] = system: HCT116 cells; test: Cell proliferation, xCELLigence system; assay type: cell-based, human; settings: Cell Index, 48 h, concentration in the value
[4] = biological target: T1, Recombinant full length human CBS; test: Methylene blue assay of CBS-derived H2S; assay type: biochemical; settings: read-out: % inhibition of CBS-induced methylene blue signal
[5] = read-out: Confirmation (% inhibition of CBS-induced AzMC fluorescence), 30 μM, mean ± SEM, n = 3
[6] = read-out: Initial screen (% inhibition of CBS-induced AzMC fluorescence), 30 μM
[7] = read-out: % inhibition of recombinant CBS activity
[8] = read-out: Confirmation (% inhibition of CBS-induced AzMC fluorescence)
[9] = read-out: Initial screen (% inhibition of CBS-induced AzMC fluorescence)
[10] = read-out: IC50, inhibition of recombinant CBS (CBS-induced AzMC fluorescence), cell-free, 2 mM L-cysteine and homocysteine

Row | Compound | Confirmation (% inhibition of GYY4137-induced AzMC fluorescence) ([1]; 30 μM) | inhibition at 30 µM [2, 5] [%] | inhibition at 30 µM [2, 6] [%] | Initial screen (% inhibition of CBS-induced AzMC fluorescence) ([2]; 30 μM) | Confirmation (% inhibition of CBS-induced AzMC fluorescence) ([2]; 30 μM) | further results
1 | COC1=C(OC)C(=O)c2ccccc2C1=O [2,3-Dimethoxy-1,4-naphthoquinone] | 51 ± 4% | 53 ± 1 | 49 | – | – | –
2 | NNCc1cccc(O)c1 [3-hydroxybenzylhydrazine] | – | – | – | – | – | inhibition at 10 µM [2, 7]: 24%; inhibition at 30 µM [2, 7]: 37%; inhibition at 100 µM [2, 7]: 68%
3 | NC(N)=NC(=O)c1nc(Cl)c(N2CCCCCC2)nc1N [5-(N,N-hexamethylene)amiloride] | 54 ± 4% | – | – | 72% | 58 ± 3% | –
4 | O=C(O)C1=CC(=C(c2ccc(O)c(C(=O)O)c2)c2ccc(O)c(C(=O)O)c2)C=CC1=O [Aurintricarboxylic acid] | −2 ± 1% | 87 ± 1 | 59 | – | – | % inhibition of GYY4137-induced AzMC fluorescence ([1]; 10 μM): −3 ± 2%; % inhibition of GYY4137-induced AzMC fluorescence ([1]; 100 μM): 6 ± 1%; Effect on HCT116 cell proliferation (words) [3]: did not inhibit cell proliferation at 10–100 μM; also recorded: at 300 μM increased cell proliferation; Effect on HCT116 cell proliferation (words) ([3]; listed as aurintricarboxylic acid): stimulated cell proliferation at 300 μM; inhibition at 10 µM [4]: 38 ± 2%; inhibition at 30 µM [4]: 61 ± 1%; inhibition at 100 µM [4]: 72 ± 1%; IC50 [2]: ~3000 nM; inhibition at 10 µM ([2]; read-out: % inhibition of CBS-induced AzMC fluorescence, 10 μM, mean ± SEM, n = 3): 72 ± 1%; inhibition at 100 µM ([2]; read-out: % inhibition of CBS-induced AzMC fluorescence, 100 μM, mean ± SEM, n = 3): 94 ± 1%
5 | C[C@@](Cc1ccc(O)c(O)c1)(NN)C(=O)O [Carbidopa] | – | – | – | – | – | inhibition at 100 µM ([2]; read-out: % inhibition of recombinant CBS activity, 100 μM, standard assay conditions, freshly dissolved): 6%
6 | CC(C)/N=c1\cc2n(-c3ccc(Cl)cc3)c3ccccc3nc-2cc1Nc1ccc(Cl)cc1 [Clofazimine] | 28 ± 5% | 30 ± 7 | 47 | – | – | –
7 | Cc1cc(C(C#N)c2ccc(Cl)cc2)c(Cl)cc1NC(=O)c1cc(I)cc(I)c1O (stereo not shown) [Closantel] | 31 ± 2% | – | – | – | – | inhibition at 30 µM [2, 8]: 25 ± 5%; inhibition at 30 µM [2, 9]: 43%
8 | O=[N+]([O-])[O-].O=[N+]([O-])[O-].[Cu+2] [Cu(NO2)2, copper(II) nitrate] | – | – | – | – | – | IC50 [2, 10]: ~200 nM
9 | CC(=O)[O-].CC(=O)[O-].[Cu+2] [CuAc, copper(II) acetate] | – | – | – | – | – | % inhibition of GYY4137-induced AzMC fluorescence ([1]; copper compounds, 0.1 μM): 2 ± 2%; % inhibition of GYY4137-induced AzMC fluorescence ([1]; copper compounds, 0.3 μM): 12 ± 1%; % inhibition of GYY4137-induced AzMC fluorescence ([1]; copper compounds, 1 μM): 17 ± 1%; % inhibition of CBS-induced AzMC fluorescence ([2]; 0.1 μM): 39 ± 1%; % inhibition of CBS-induced AzMC fluorescence ([2]; 0.3 μM): 66 ± 1%; % inhibition of CBS-induced AzMC fluorescence ([2]; 1 μM): 92 ± 1%; IC50 [2, 10]: ~200 nM
10 | O=S(=O)([O-])c1cc(N=C=S)ccc1C=Cc1ccc(N=C=S)cc1S(=O)(=O)[O-].[Na+].[Na+] [DIDS, 4,4′-diisothiocyanostilbene-2,2′-sufonic acid sodium salt] | 56 ± 5% | – | – | 69% | 58 ± 4% | –
11 | COc1cc2cc3c4c(cc(OC)c(OC)c4c2cc1OC)CCN3C [Dehydroglaucine] | – | – | – | – | – | Confirmation (% inhibition of GYY4137-induced AzMC fluorescence) ([1]; 17 μM): 57 ± 8 (17 μM) %; Initial screen (% inhibition of CBS-induced AzMC fluorescence) ([2]; 17 μM): 62% (17 μM); Confirmation (% inhibition of CBS-induced AzMC fluorescence) ([2]; 17 μM): 82 ± 4 (17 μM) %
12 | CC1=C(C2=C(C)C(=O)c3c(c(C=O)c(O)c(O)c3C(C)C)C2=O)C(=O)c2c(C=O)c(O)c(O)c(C(C)C)c2C1=O [Gossypolone] | – | – | – | – | – | Confirmation (% inhibition of GYY4137-induced AzMC fluorescence) ([1]; 12 μM): 25 ± 4 (12 μM) %; inhibition at 12 µM [2, 8]: 30 ± 5%; inhibition at 12 µM [2, 9]: 57%
13 | O=C1C=CC(=O)c2c(O)cccc21 [Juglone] | 61 ± 3% | – | – | – | – | –
14 | O=Nc1ccc(O)c2ncccc12 [NSC 3852, 5-Nitroso-8-quinolinol] | 47 ± 5% | 48 ± 5 | 58 | – | – | –
15 | O=C1C(SCCO)=C(SCCO)C(=O)c2ccccc21 [NSC 95397, 2,3bis[(2-Hydroxyethyl)thio]-1,4-naphthoquinone] | 58 ± 1% | 58 ± 8 | 68 | 70% | 59 ± 8% | –
16 | O=C(N/N=C/c1ccc([N+](=O)[O-])o1)c1ccc(O)cc1 [Nifuroxazide] | 50 ± 2% | 55 ± 4 | 48 | – | – | –
17 | NC(=O)N/N=C/c1ccc([N+](=O)[O-])o1 [Nitrofurazone] | 48 ± 5% | 54 ± 2 | 52 | – | – | –
18 | CC(=O)[O][Hg][c]1ccccc1 [Phenylmercuric acetate] | 59 ± 2% and 32 ± 4% | – | – | 69% and 52% | 50 ± 6% and 29 ± 4% | –
19 | CC(=O)[C@H]1CC[C@H]2[C@@H]3CCC4=CC(=O)CC[C@]4(C)[C@H]3CC[C@]12C [Progesterone] | 64 ± 1% | 75 ± 3 | 68 | – | – | –
20 | Cc1cc(/C=C/c2ccc3cc(N(C)C)ccc3[n+]2C)c(C)n1-c1ccccc1 [Pyrvinium pamoate] | 36 ± 3% | – | 49 | – | – | –
21 | Cc1cc2nc3c(=O)[nH]c(=O)nc-3n(C)c2cc1C=O [Ro-08-2750, 2,3,4,10-Tetrahydro-7,10-dimethyl-2,4-dioxobenzo[g]pteridine-8-carboxaldehyde] | 69 ± 8% | 59 ± 3 | 55 | – | – | –
22 | N.N.N.N.N.N.N.N.N.N.N.N.N.N.[Cl-].[Cl-].[Cl-].[Cl-].[Cl-].[Cl-].[O-2].[O-2].[Ru+3].[Ru+3].[Ru+4] [Ruthenium red] | 72 ± 3% | – | – | 72% | 72 ± 6% | –
23 | N#C/C(=C\c1ccc(O)c(O)c1)C(=O)NCCCNC(=O)/C(C#N)=C/c1ccc(O)c(O)c1 [Tyrphostin AG 537] | 48 ± 2% | – | – | 49% | 42 ± 1% | –
24 | Chlorophyllide Cu complex Na salt | 78 ± 3% | – | – | 80% | 97 ± 1% | Initial screen (% inhibition of CBS-induced AzMC fluorescence) ([2]; 30 μM, listed as Chlorophyllide cu complex Na salt): 82%
25 | Verteporfin | 38 ± 5% | – | – | 69% | 41 ± 5% | –
